Laboratory results: ChEMBL document CHEMBL1145244, “In vitro advanced antimycobacterial screening of isoniazid-related hydrazones, hydrazides and cyanoboranes: part 14” (2005)
Values after ≈ are worked out from the molar mass of the structure shown.

Key:
[1] = system: Mycobacterium tuberculosis; test: Ratio of effective concentration required for the reduction in colony forming units (CFU) at seven days compared to drug free controls to that of MIC against Mycobacterium tuberculosis Erdman; type: functional
[2] = system: Vero; test: Selective index of IC50 of Vero Cells to that of MIC of Mycobacterium tuberculosis H37Rv; type: functional, Chlorocebus sabaeus
[3] = system: Mycobacterium tuberculosis; test: In vitro antimycobacterial activity against Mycobacterium tuberculosis H37Rv in broth cluture infected with macrophages; type: functional
[4] = system: Mycobacterium tuberculosis; test: In vitro antimycobacterial activity against Mycobacterium tuberculosis Erdman in broth cluture infected with macrophages; type: functional
[5] = system: Mycobacterium tuberculosis; test: Effective concentration required for the reduction in colony forming units (CFU) at seven days compared to drug free controls; type: functional; settings: 168 h
[6] = system: Mycobacterium tuberculosis; test: In vitro antimycobacterial activity against Mycobacterium tuberculosis H37Rv in broth cluture infected with macrophages; Range 0.025-0.05; type: functional

Compound	Ratio [1]	Selective index [2]	MBC [3] [µg/mL]	MIC [3] [µg/mL]	MIC [4] [µg/mL]	EC90 [5] [µg/mL]	EC99 [5] [µg/mL]	MIC [6] [µg/mL]
O=C(N/N=C/c1ccc(C(F)(F)F)cc1)c1ccncc1	0.4	>1250	0.2 (≈ 0.682 µM)	0.05 (≈ 0.171 µM)	0.1 (≈ 0.341 µM)	0.04 (≈ 0.136 µM)	0.09	–
O=C(N/N=C/c1ccccc1F)c1ccncc1	1	168	–	0.05 (≈ 0.206 µM)	0.05 (≈ 0.206 µM)	0.05 (≈ 0.206 µM)	0.14	–
C/C(=N\NC(=O)c1ccncc1)C(F)(F)F	0.46	1160	0.2 (≈ 0.865 µM)	0.05 (≈ 0.216 µM)	0.1 (≈ 0.433 µM)	0.046 (≈ 0.199 µM)	0.41	–
C/C(=N\NC(=O)c1ccncc1)c1cccc(/C(C)=N/NC(=O)c2ccncc2)n1	0.23	320.5	12.5 (≈ 31.1 µM)	≤ 0.2	0.39 (≈ 0.972 µM)	0.09 (≈ 0.224 µM)	0.29	–
O=C(N/N=C/C(F)(F)F)c1ccncc1	–	302	–	0.05 (≈ 0.23 µM)	–	0.05 (≈ 0.23 µM)	0.25	–
C/C=N/NC(=O)c1ccncc1	1.2	>2500	0.05 (≈ 0.306 µM)	0.025 (≈ 0.153 µM)	0.025 (≈ 0.153 µM)	0.03 (≈ 0.184 µM)	0.08	–
C/C(=N\NC(=O)c1ccncc1)c1ccc(F)cc1	1.18	>78	–	1.6 (≈ 6.22 µM)	1.56 (≈ 6.06 µM)	1.84 (≈ 7.15 µM)	5.25	–
N#CC[n+]1ccc(C(=O)NNCc2ccccc2)cc1	0.0093	–	1.56	0.8	12.5	0.116	1.49	–
CC(NNC(=O)c1ccncc1)c1ccccc1F (stereo not drawn)	0.81	78.12	–	1.6 (≈ 6.17 µM)	3.13 (≈ 12.1 µM)	2.54 (≈ 9.8 µM)	6.06	–
N#CC[n+]1ccc(C(=O)NNCC(F)(F)F)cc1	0.091	122	3.13	0.78	12.5	1.14	10.6	–
NNC(=O)c1ccncc1 [ISONIAZID]	–	>20000	0.1 (≈ 0.729 µM)	–	–	0.03 (≈ 0.219 µM)	0.42	0.05 (≈ 0.365 µM)
